Data reported in PubChem BioAssay (NCI).
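Method: 48-hour compound exposure of cells in 96-well plates, five concentrations, linear interpolation of endpoints. Abbreviation: GI50, concentration required for 50% inhibition of growth. TGI: concentration producing complete growth inhibition.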

Key:
Test in all cases: DTP human tumour cell line panel, 48 h
ACHN renal = system: ACHN renal
SR leukemia = system: SR leukemia
SK-MEL-2 melanoma = system: SK-MEL-2 melanoma
HL-60(TB) leukemia = system: HL-60(TB) leukemia
A498 renal = system: A498 renal
HCT-116 colon = system: HCT-116 colon
MDA-MB-231 breast = system: MDA-MB-231 breast
A549 NSCLC = system: A549 NSCLC
SF-295 CNS = system: SF-295 CNS
U251 CNS = system: U251 CNS
UACC-62 melanoma = system: UACC-62 melanoma
NCI/ADR-RES ovarian = system: NCI/ADR-RES ovarian
IGROV1 ovarian = system: IGROV1 ovarian
PC-3 prostate = system: PC-3 prostate
EKVX NSCLC = system: EKVX NSCLC
NCI-H522 lung = system: NCI-H522 lung
786-0 renal = system: 786-0 renal
NCI-H226 lung = system: NCI-H226 lung
HCT-15 colon = system: HCT-15 colon
K-562 leukemia = system: K-562 leukemia
KM12 colon = system: KM12 colon
UACC-257 melanoma = system: UACC-257 melanoma
RXF 393 renal = system: RXF 393 renal
LOX IMVI melanoma = system: LOX IMVI melanoma
SNB-75 CNS = system: SNB-75 CNS
SK-MEL-5 melanoma = system: SK-MEL-5 melanoma
MOLT-4 leukemia = system: MOLT-4 leukemia
OVCAR-3 ovarian = system: OVCAR-3 ovarian
NCI-H23 lung = system: NCI-H23 lung
HT29 colon = system: HT29 colon
COLO 205 colon = system: COLO 205 colon
MCF7 breast = system: MCF7 breast
CAKI-1 renal = system: CAKI-1 renal
NCI-H460 lung = system: NCI-H460 lung
SF-539 CNS = system: SF-539 CNS
DU-145 prostate = system: DU-145 prostate
HS 578T breast = system: HS 578T breast
M14 melanoma = system: M14 melanoma
RPMI-8226 leukemia = system: RPMI-8226 leukemia
SN12C renal = system: SN12C renal
SK-MEL-28 melanoma = system: SK-MEL-28 melanoma
OVCAR-4 ovarian = system: OVCAR-4 ovarian
SNB-19 CNS = system: SNB-19 CNS
OVCAR-8 ovarian = system: OVCAR-8 ovarian
OVCAR-5 ovarian = system: OVCAR-5 ovarian
CCRF-CEM leukemia = system: CCRF-CEM leukemia
BT-549 breast = system: BT-549 breast
SF-268 CNS = system: SF-268 CNS
UO-31 renal = system: UO-31 renal
TK-10 renal = system: TK-10 renal
MDA-MB-435 = system: MDA-MB-435
SW-620 colon = system: SW-620 colon
HCC-2998 colon = system: HCC-2998 colon
T-47D breast = system: T-47D breast
MALME-3M melanoma = system: MALME-3M melanoma
HOP-62 NSCLC = system: HOP-62 NSCLC
SK-OV-3 ovarian = system: SK-OV-3 ovarian
HOP-92 NSCLC = system: HOP-92 NSCLC

## COc1c(N2CCN(CN3C(=O)C(=Nc4ccc(S(=O)(=O)Nc5ncccn5)cc4)c4ccccc43)C(C)C2)c(F)cc2c(=O)c(C(=O)O)cn(C3CC3)c12 (stereo not drawn)
ACHN renal
  GI50: > 50 µM
  TGI: > 50 µM
SR leukemia
  GI50: 12.5 µM
  TGI: > 50 µM
SK-MEL-2 melanoma
  GI50: 20 µM
  TGI: > 50 µM
HL-60(TB) leukemia
  GI50: > 50 µM
  TGI: > 50 µM
A498 renal
  GI50: 0.833 µM
  TGI: 14.2 µM
HCT-116 colon
  GI50: 18.2 µM
  TGI: > 50 µM
MDA-MB-231 breast
  GI50: > 50 µM
  TGI: > 50 µM
A549 NSCLC
  GI50: > 50 µM
  TGI: > 50 µM
SF-295 CNS
  GI50: > 50 µM
  TGI: > 50 µM
U251 CNS
  GI50: > 50 µM
  TGI: > 50 µM
UACC-62 melanoma
  GI50: 36.9 µM
  TGI: > 50 µM
NCI/ADR-RES ovarian
  GI50: 23.2 µM
  TGI: > 50 µM
IGROV1 ovarian
  GI50: 19.2 µM
  TGI: > 50 µM
PC-3 prostate
  GI50: > 50 µM
  TGI: > 50 µM
EKVX NSCLC
  GI50: > 50 µM
  TGI: > 50 µM
NCI-H522 lung
  GI50: > 50 µM
  TGI: > 50 µM
786-0 renal
  GI50: > 50 µM
  TGI: > 50 µM
NCI-H226 lung
  GI50: 32.1 µM
  TGI: > 50 µM
HCT-15 colon
  GI50: 20.7 µM
  TGI: > 50 µM
K-562 leukemia
  GI50: 11.9 µM
  TGI: > 50 µM
KM12 colon
  GI50: 40.8 µM
  TGI: > 50 µM
UACC-257 melanoma
  GI50: 47 µM
  TGI: > 50 µM
RXF 393 renal
  GI50: 42.4 µM
  TGI: > 50 µM
LOX IMVI melanoma
  GI50: 27.5 µM
  TGI: > 50 µM
SNB-75 CNS
  GI50: 7.71 µM
  TGI: > 50 µM
SK-MEL-5 melanoma
  GI50: 20.2 µM
  TGI: > 50 µM
MOLT-4 leukemia
  GI50: 17 µM
  TGI: > 50 µM
OVCAR-3 ovarian
  GI50: > 50 µM
  TGI: > 50 µM
NCI-H23 lung
  GI50: 19.8 µM
  TGI: > 50 µM
HT29 colon
  GI50: 22.3 µM
  TGI: > 50 µM
COLO 205 colon
  GI50: 0.269 µM
  TGI: > 50 µM
MCF7 breast
  GI50: 16.5 µM
  TGI: > 50 µM
CAKI-1 renal
  GI50: 48 µM
  TGI: > 50 µM
NCI-H460 lung
  GI50: 22.4 µM
  TGI: > 50 µM
SF-539 CNS
  GI50: > 50 µM
  TGI: > 50 µM
DU-145 prostate
  GI50: 11.2 µM
  TGI: 35.2 µM
HS 578T breast
  GI50: > 50 µM
  TGI: > 50 µM
M14 melanoma
  GI50: > 50 µM
  TGI: > 50 µM
RPMI-8226 leukemia
  GI50: 28.7 µM
  TGI: > 50 µM
SN12C renal
  GI50: > 50 µM
  TGI: > 50 µM
SK-MEL-28 melanoma
  GI50: > 50 µM
  TGI: > 50 µM
OVCAR-4 ovarian
  GI50: > 50 µM
  TGI: > 50 µM
SNB-19 CNS
  GI50: 6.51 µM
  TGI: 31.3 µM
OVCAR-8 ovarian
  GI50: 21.4 µM
  TGI: > 50 µM
OVCAR-5 ovarian
  GI50: > 50 µM
  TGI: > 50 µM
CCRF-CEM leukemia
  GI50: 44.4 µM
  TGI: > 50 µM
BT-549 breast
  GI50: 19.6 µM
  TGI: > 50 µM
SF-268 CNS
  GI50: 44.1 µM
  TGI: > 50 µM
UO-31 renal
  GI50: 40.1 µM
  TGI: > 50 µM
TK-10 renal
  GI50: 11.9 µM
  TGI: 43.7 µM
MDA-MB-435
  GI50: > 50 µM
  TGI: > 50 µM
SW-620 colon
  GI50: 10.8 µM
  TGI: 39.4 µM

## CC(C)C[P+](c1ccccc1)(c1ccccc1)c1ccccc1
ACHN renal
  TGI: > 100 µM
SK-MEL-2 melanoma
  TGI: 41.7 µM
HL-60(TB) leukemia
  TGI: 24 µM
A498 renal
  TGI: > 100 µM
HCT-116 colon
  TGI: > 100 µM
MDA-MB-231 breast
  TGI: > 100 µM
A549 NSCLC
  TGI: > 100 µM
SF-295 CNS
  TGI: 90.5 µM
U251 CNS
  TGI: > 100 µM
UACC-62 melanoma
  TGI: > 100 µM
NCI/ADR-RES ovarian
  TGI: > 100 µM
IGROV1 ovarian
  TGI: > 100 µM
EKVX NSCLC
  TGI: 30 µM
NCI-H522 lung
  TGI: > 100 µM
HCC-2998 colon
  TGI: > 100 µM
786-0 renal
  TGI: > 100 µM
NCI-H226 lung
  TGI: > 100 µM
T-47D breast
  TGI: > 100 µM
HCT-15 colon
  TGI: > 100 µM
K-562 leukemia
  TGI: > 100 µM
KM12 colon
  TGI: 20.7 µM
UACC-257 melanoma
  TGI: 4.19 µM
MALME-3M melanoma
  TGI: 83.6 µM
LOX IMVI melanoma
  TGI: > 100 µM
SNB-75 CNS
  TGI: > 100 µM
HOP-62 NSCLC
  TGI: > 100 µM
SK-MEL-5 melanoma
  TGI: 18.2 µM
MOLT-4 leukemia
  TGI: > 100 µM
OVCAR-3 ovarian
  TGI: 84.6 µM
NCI-H23 lung
  TGI: > 100 µM
HT29 colon
  TGI: > 100 µM
COLO 205 colon
  TGI: 15.7 µM
MCF7 breast
  TGI: > 100 µM
CAKI-1 renal
  TGI: 37.8 µM
NCI-H460 lung
  TGI: > 100 µM
SF-539 CNS
  TGI: > 100 µM
DU-145 prostate
  TGI: > 100 µM
HS 578T breast
  TGI: > 100 µM
SK-OV-3 ovarian
  TGI: 87.4 µM
M14 melanoma
  TGI: > 100 µM
RPMI-8226 leukemia
  TGI: 0.033 µM
SN12C renal
  TGI: > 100 µM
SK-MEL-28 melanoma
  TGI: > 100 µM
OVCAR-4 ovarian
  TGI: > 100 µM
SNB-19 CNS
  TGI: > 100 µM
OVCAR-5 ovarian
  TGI: > 100 µM
CCRF-CEM leukemia
  TGI: 11.1 µM
BT-549 breast
  TGI: > 100 µM
SF-268 CNS
  TGI: > 100 µM
UO-31 renal
  TGI: > 100 µM
TK-10 renal
  TGI: 66.5 µM
MDA-MB-435
  TGI: 25 µM
SW-620 colon
  TGI: > 100 µM
HOP-92 NSCLC
  TGI: 26.3 µM
